Experimental data reported in patent US20250327794A1, “FLUOROMETRIC METHODS FOR DETECTION OF ALLERGIC SENSITIVITY TO ENVIRONMENTAL, FOODSTUFF, AND MEDICAMENT STIMULANTS” (CELL SCIENCE SYSTEMS CORPORATION, priority 2022, published 2025).

Legend:
Format in all cases: cell-based, human
[1] = test system: granulocytes; test: Citrullinated histone H3 flow cytometry blood test (extracellular trap formation)
Source text: Detection of extracellular traps formation was incorporated to improve flow cytometry analysis of granulocyte subpopulations. […] This example describes detection of granulocyte activation following exposure of human blood to exogenous stimulant, using dihydrorhodamine 123, propidium iodide, and citrullinated histone H3 staining.
Peripheral blood samples were collected, diluted, maintained, treated, lysed, and fixed as previously described. Samples were blocked as previously described and incubated with staining buffer containing a 1:400 dilution of Cit-H3 antibody (Cayman Chemical, Michigan, USA) for 30 min at RT. Following two wash steps, the samples were incubated with APC-conjugated secondary (1:200) (Columbia Biosciences, Maryland, USA) for 30 min and subsequent washing steps were performed to remove unbound antibodies. Cells were washed twice and resuspended in PBS prior to analysis using a BD Accuri C6 Flow Cytometer (BD Biosciences). Statistical analysis was performed using the FlowJo v10 (FlowJo). NETs were defined by the in-tandem use of the classis extracellular DNA/viability marker PI(+) and the extracellular trap marker Cit-H3(+). NET formation was quantified as a fold-change relative to the mean of the negative control samples.

[2] = test system: basophils; test: Basophil activation: RH 123 signal in CD123(+)/CD16(-) gated cells
Source text: Activation of basophils from human blood samples following exposure to exogenous stimulants was investigated using flow cytometry analysis of RH 123 fluorescence, as well as cell surface markers CD16 and CD193, and side scattering profiles. CD123 is a cell surface marker that is expressed on basophils and eosinophils. FIGS. 25A-25C show density plots of CD123 signals at channel 4 (FL4-A) for DHR 123 only (FIG. 25A), DHR 123+PMA stimulant (FIG. 25B), and DHR 123+DM stimulant exposed group (FIG. 25C) following exposure to stimulant for 1.5 hours. FIGS. 25D-25F show corresponding gated RH 123 results (MFI=2055, MFI=6388, and MFI=3023, respectively). FIGS. 26A-26C show density plots of CD123 signals at channel 4 (FL4-A) for DHR 123 control group (FIG. 26A), DHR 123 and dust mite stimulant-exposed group (FIG. 26B), and DHR 123 and ragweed pollen stimulant-exposed group (FIG. 26C) following exposure to stimulant for 2.5 hours. FIGS. 26D-26F show corresponding gated RH 123 results (MFI=1800, MFI=3299, and MFI=1270, respectively).
Basophil population was selected by having CD123(+)/CD16(−) expression profiles, along with lower side scattering (shown in FIGS. 25A-25C and FIGS. 26A-26C as encircled). In contrast to reducing eosinophil population for different allergen treated groups, basophil population appeared stable over the experiment time period (1.5 hours and 2.5 hours).

[3] = test system: white blood cells; test: DHR 123 flow cytometry blood test: RH 123 fluorescence (ROS generation), channel 1 FL1-A
Description: See FIG. 1 and FIG. 2 for exemplary flow diagrams of the method. Whole peripheral blood samples were obtained from subjects and collected in lithium heparin tubes. Samples were diluted 1:100 in electrolyte solution supplemented with 10% heat-inactivated fetal-bovine serum (FBS). Samples were incubated with 5 μg of dihydrorhodamine 123 (DHR 123) at 37° C. under 5% CO2 for 15 min. Cells were treated with 1 μM Phorbol-12-Myristate-13-Acetate (PMA), an exogenous stimulant, or an equal volume of PBS (negative control), and incubated for 30 min to 1 hr.
RBCs of the sample were lysed, fixed, and removed prior to flow cytometry analysis. Briefly, cells were lysed and partially fixed using 3% (v/v) lysis buffer and 1% (v/v) formaldehyde in phosphate-buffered saline (PBS). Samples were incubated for 2 min or until turbidity of the solution was resolved indicating essentially complete lysis of RBCs, and the sample centrifuged at 300×g for 5 min at room temperature (RT). RBC-containing supernatant was discarded, and remaining leukocytes were fixed using 3.7% (v/v) formaldehyde and centrifuged at 300×g at RT for 5 min. Samples were washed twice in FBS and centrifuged at 300×g at RT for 5 min. After washing, the cells were blocked with FC block (Invitrogen, USA) and 2% FBS for 30 min on ice and then incubated with staining buffer containing manufacturer-specified dilutions of fluorophore-conjugated antibodies specific for granulocytes (e.g., neutrophils, basophils, and/or eosinophils) or granulocyte activation (e.g., degranulation). Cells were washed twice and resuspended in PBS prior to analysis using a BD Accuri C6 Flow Cytometer (BD Biosciences, USA). Statistical analysis was performed using the FlowJo v10 (FlowJo, Oregon, USA).
A sample of whole blood was treated with DHIR 123 or mock at 37° C. for 15 min, then treated with phorbol 12-myristate 13-acetate (PMA) and incubated for 25 min. Red and white blood cells were lysed and fixed as described above. Flow cytometry results are shown in FIGS. 3A-3D for negative control (FIG. 3A), DHR 123 only treated control (FIG. 3B), DHR 123+PMA treated (FIG. 3C), as well as an overlap plot of each (FIG. 3D).
Provided below is an exemplary protocol for DHR 123 treatment and cell surface marker staining for DHR 123 flow cytometry blood test. • 1. Obtain a blood sample from a subject; e.g., • 1 mL blood sample for each person was obtained. • 2. Treat with DHR 123 and/or stimulant (e.g., PMA); e.g., • 100 μL whole blood was used for each group: 1) cell only control; 2) DHR 123 loaded cells; 3) DHR 123 loaded cells stimulated with stimulant (e.g., PMA). […] Fix and lyse the cells; e.g., • After stimulant treatment, the cells were fixed and red blood cells were concurrently lysed by adding lysis/fixation solution (e.g., 850 μL (800 μl PBS, 25 μL lyse solution, […])) and incubating 5 min at room temperature. • 4. Prepare cells for staining; e.g., • Cells were centrifuged and the supernatant discarded; • Formaldehyde solution (e.g., 500 μL, 3.7% formaldehyde) was added and incubated for 5 more minutes for fixation; • Cells were centrifuged and the supernatant discarded; • Cells were washed with 350 μL PBS twice, and then centrifuged before discarding the supernatant; • Cells were centrifuged and the supernatant discarded; • 5. Stain the cells; e.g., • 80 μL staining buffer (PBS+0.1% albumin+0.01% tween 20) was added, along with 5 μL of antibody solution for CD16, CD123 and CD193 and the sample incubated for 30 min at room temperature; • 6. Prepare cells for flow cytometry; e.g., • Cells were washed with PBS, centrifuged and the supernatant discarded; • Cells were resuspended in 125 μL PBS for subsequent flow cytometer analysis.
Flow cytometry analysis of human blood samples was performed following exposure to exogenous dust mite (“DM”) stimulant using time course measurements of RH 123 and PI fluorescence. […]

[4] = after 40-minute stimulation of PMA

CCCCCCCCCCCCCC(=O)O[C@@H]1[C@@H](C)[C@@]2(O)[C@@H](C=C(CO)C[C@]3(O)C(=O)C(C)=C[C@@H]23)[C@@H]2C(C)(C)[C@]12OC(C)=O [PMA, Phorbol-12-Myristate-13-Acetate]
RH 123 (FL1-A) and PI (FL3-A) fluorescence signal compared with cell-only group [1]: higher
percentage cells positive for citrullinated histone H3 signals ([1]; after gating on FL3-A and FL4-A): high
PI staining signal (channel 3, FL3-A) ([1]; repeat, 8 μL stimulant/100 μL blood): stronger signals
CD123 signal over incubation time ([2]; 1-3 hr incubation, DHR 123 and PMA): decreased
gated RH 123 signal MFI, CD123 gated ([2]; 1.5 hours exposure, DHR 123 only control MFI=2055): 6388
basophil activation (in words) ([2]; RH 123 signal vs DHR 123 only control): induced the activation of basophils
activation of granulocyte populations (summary of Example 2) [3]: induced the activation of all granulocyte populations
stimulation of lymphocytes (in words) ([3]; CD33(−) lymphocyte population (M1)): not stimulated
Mean FL1-A (0.5 h) ([3]; R123, 0.5 h, PMA, RWP1 2.5 μL, MLK, CUC, BAS 5 μL per 100 μL blood (Table 5)): 58,792.96
Mean FL1-A (1.5 h) ([3]; R123, 1.5 h, PMA, RWP1 2.5 μL, MLK, CUC, BAS 5 μL per 100 μL blood (Table 5)): 168,741.44
Mean FL1-A (2.5 h) ([3]; R123, 2.5 h, PI stained, PMA, RWP1 2.5 μL, MLK, CUC, BAS 5 μL per 100 μL blood (Table 5)): 361,510.02
MFI (0.5 h) FL1-A ([3]; RH 123, 0.5 h incubation, PMA or DM 2 μL/100 μL blood): 5,076.27
MFI (1.5 h) FL1-A ([3]; RH 123, 1.5 h incubation, PMA or DM 2 μL/100 μL blood): 14,093.83
MFI (2.5 h) FL1-A ([3]; RH 123, 2.5 h, increased stimulant, 8 μL DM or RWP per 100 μL blood (Table 7)): 10,553.44
MFI (2.5 h) FL1-A ([3]; RH 123, 2.5 h incubation, PI stained, PMA or DM 2 μL/100 μL blood): 9,353.98
RH 123 average intensity of peak [3, 4]: about 10^6 unit
RH 123 average intensity relative to negative control (DHR 123 only) [3, 4]: ~500 times
RH 123 fluorescence / ROS generation (in words) ([3]; vs cells loaded with DHR 123 only): strong green fluorescence
